Laboratory results from patent publication US11759461B2, “Small molecule inhibitors of cancer stem cells and mesenchymal cancer types” (The Scripps Research Institute, priority 2017, dated 2023).
Where two headings read alike, the source gives them in different places.

What was measured:
FOXC2-HMLER cells = assay: Confocal imaging of thymidine synced FOXC2-HMLER cells at metaphase; format: cell-based, human
From the text: Because Compound 1 induces a hyper-phosphorylated VIM phenotype, we sought to determine if Compound 1's engagement of VIM might interfere at an alternative stage of mitosis. We therefore performed time course confocal imaging studies of Compound 1 treated FOXC2-HMLER cells after their release from thymidine blocking-based cell cycle synchronization.
Compound 1 treatment also disrupted the ability of β-tubulin to faithfully form the fine spindle microtubules of the mitotic spindle, instead resulting in a compressed phenotype with radiating projections connecting unaligned chromosomes. To assess the uniqueness of this phenotype, we evaluated the metaphase phenotypes of other chemical inhibitors which have shown to alter mitotic progression. These included inhibitors of centromere-associated protein E (CENP-E, also called kinesin-7, GSK92395), kinesin spindle protein (KSP, also called Eg5, Ispinesib), polo like kinases (PLK1/2/3, BI2536), and aurora kinases (AURKA/B/C, VX-680).

[1] = tested on: SNAIL-HMLE, MDA-MB-231, and SUM159; assay: Growth inhibition of additional mesenchymal breast cancer cell lines; format: cell-based, human; conditions: MDA-MB-231, SUM159, express FOXC2 from endogenous locus
From the text: (§1) The propagation conditions and generation of FOXC2-HMLER, HMLER, SNAIL-HMLER, SNAIL-HMLE, and SUM159 cells have been described previously (Mani (2008)). MCF-7, HepG2, HCT116, and MDA-MB-231 cells were from ATCC and maintained in DMEM medium (Corning) supplemented with 10% FBS (Corning) with Anti-anti (Gibco). The soft tissue sarcoma cell line panel was purchased from ATCC (TCP-1019) and maintained in the recommended medium for each cell type. HUVEC cells (pooled donor) were maintained in EBM-2 medium (both from Lonza Walkersville). Primary human lung fibroblasts were maintained in Fibroblast Medium (both from Sciencell Research Laboratories). For cell growth experiments, HLFs were grown in DMEM supplemented with 2% FBS and Anti-anti. For all experiments, primary human cells were used at a passage no greater than 4.
(§2) For high throughput screening, FOXC2-HMLER and HMLER cells were plated at 10^3 cells per well in white 384-well plates in 50 μL of MEGM medium (Lonza). Cells were allowed to attach for one hour before compound was transferred to each well as a DMSO solution using a 100 nL pintool head affixed to a PerkinElmer FX instrument. After 72-hour incubation, 30 μL of a Cell Titer Glo solution (diluted 1:6 in water, Promega) was dispensed into each well and luminance values were recorded using an Envision plate reader. […]

[2] = tested on: STS cell lines (HT 1080, SW684, RD, GCT, SW872, SW982); assay: Anti-proliferative activity against soft tissue sarcoma cell line panel; format: cell-based
From the text: as §1
For high throughput screening, FOXC2-HMLER and HMLER cells were plated at 10^3 cells per well in white 384-well plates in 50 μL of MEGM medium (Lonza). Cells were allowed to attach for one hour before compound was transferred to each well as a DMSO solution using a 100 nL pintool head affixed to a PerkinElmer FX instrument. After 72-hour incubation, 30 μL of a Cell Titer Glo solution (diluted 1:6 in water, Promega) was dispensed into each well and luminance values were recorded using an Envision plate reader. […] Selected hit compounds were reordered from ChemDiv and tested for selective toxicity in 10-point response assays as above. All other miniaturized, selective viability experiments were performed as above using the indicated growth medium.
The anti-proliferative activity of Compound 1 was assessed against a selection of soft tissue sarcomas (STS), which collectively refers to a broad grouping of over 50 subtypes of connective tissue derived cancers for which targeted therapies are lacking (Zambo (2014)). […]
A panel of 6 STS cell lines were evaluated, which cell lines included the histological subtypes of fibrosarcoma (HT 1080, SW684), rhabdomyosarcoma (RD), fibrous histiocytoma (GCT), liposarcoma (SW872), and synovial sarcoma (SW982). […]

control HMLER cells = assay: Cell Titer Glo viability of control HMLER cells; format: cell-based; conditions: Homo sapiens; 72-hour incubation; read-out: HMLER IC50
From the text: An engineered cancer cell line HMLER as an isogenic screening system was employed to identify compounds that are selectively toxic to the FOXC2 positive genotype. HMLER cells are derived from mammary epithelial cells (HMECs), but are virally transformed with the […] oncogene (G12V), human telomerase reverse transcriptase (hTERT), and SV40 large-T antigen (B. Elenbaas, B. et al. Genes Dev. 15 (2001) 50-65). Expression of these genes endows HMLER cells with functional immortality and tumorigenic potential at high seeding number (>10^6 cells; Hollier (2013)). […]
as §2, with “Cells were allowed to attach for one hour before compound was transferred to each well as a DMSO solution using a 100 nL pintool head affixed to a PerkinElmer FX instrument.” left out
More specifically, in the high throughput screening assay above, each cell line was plated at 1,000 cells per well in 384-well plates, treated for 72 hours with 2 μM of test compound, and the viability of each line was determined in parallel by Cell Titer Glo (Promega) luminance measurements. […]

[3] = tested on: FOXC2-HMLER, SNAIL-HMLER, SUM159, and MDA-MB-231 cells; assay: In vitro mammosphere formation assay; format: cell-based, human; conditions: 1 μM compound during assay (14 days)
Description: FIG. 3: Quantification of mammospheres from an in vitro mammosphere formation assay with the indicated cell types. Pretreatment indicates a 72-hour treatment with 1 μM Compound 1 before plating in mammosphere formation conditions. The expression “during assay” indicates 1 μM compound treatment during the mammosphere assay (14 days) (n=3, mean and s.d.).
Epithelial-mesenchymal transition (EMT) induction endows breast cancer cells with the ability to grow as mammospheres in culture (Mani (2008)).

- IC50 ([2]; Homo sapiens, SW872 liposarcoma cell line, read-out: IC50, SW872 cells): 440 nM
- IC50 ([2]; panel of 6 STS cell lines, read-out: IC50 values, growth of all STS cell lines): 440 to 1310 nM
SMILES: Clc1cccc(N2CCN(c3cnnc4c(Cl)cccc34)CC2)c1 [Compound 1, 8-chloro-4-(4-(3-chlorophenyl)piperazin-1-yl)cinnoline]
- VIM filamentous structure at metaphase (FOXC2-HMLER cells): collapsed VIM filamentous structure
- chromosome alignment to the metaphase plate (FOXC2-HMLER cells): inhibited the ability of chromosomes to align to the metaphase plate
- growth of additional mesenchymal breast cancer cell lines [1]: inhibit the growth
- multinucleation phenotype in STS cell lines ([2]; all STS cell lines, 24-hour treatment): robust multinucleation phenotype
- IC50 (control HMLER cells): > 20000 nM
- ability to form mammospheres in culture [3]: inhibited the ability
